Assay results as given in patent US20120107323A1, “KINASE PROTEIN BINDING INHIBITORS” (University of Florida, priority 2009, published 2012).

Experiments:
[1] = tested on: KYSE140 esophageal cancer cells; experiment: Cell viability (MTT), KYSE140; format: cell-based; settings: KYSE 140, 72 hours
Protocol: (§1) Cell viability (MTT) and CFSE Proliferation assay: Cells were plated in 96-well plates and let adhere overnight. After cell treatment, cell viability was measured by 3-(4,5-dimethylthiazol-2-yl)-2,5-diphenyl tetrazolium bromide (MTT) assay (CellTiter 96® Aqueous, Promega, Madison, Wis.).
(§2) Cell viability and detachment assays: After cells were treated with siRNA transfection, cell viability was measured by 3-(4,5-dimethylthiazol2-yl)-2,5-diphenyl tetrazolium bromide (MTT) assay (CellTiter 96® AQueous, Promega, Madison, Wis.). Briefly, 20 μl of the tetrazolium compound was added to each well. The cells were then incubated at 37° C. for 1 h. The plate was read at 490 nm with a plate reader to determine the viability. In detachment assays, detached and attached cells were harvested separately and counted in a hemocytometer. The percentage of detachment was calculated by dividing the number of detached cells by the total number of cells. Apoptosis assays: After treatment, attached and detached cells were collected, counted and prepared for terminal uridine deoxynucleotidyl transferase (TUNEL) assay by utilizing an APO-BRDU kit (BD Pharmingen, San Diego, Calif.) according to the manufacturer's instructions. Stained cells were analyzed with a fluorescence-activated cell sorting-Calibur flow cytometer (BD Biosciences). Calculation of the percentage of apoptotic cells in the sample was completed with CellQuest software (BD Biosciences). Apoptotic cells were also analyzed by Hoechst staining. Hoechst 33342 ([…]) was added to the fixed cells and the specimens were mounted on glass coverslips. The slides were viewed under the Zeiss microscope for apoptotic nuclei. The percent of apoptotic cells was calculated as the ratio of apoptotic cells to total number of cells.
(§3) In addition, the effect of INT2-31 on cell viability of esophageal, pancreatic and breast cancer cell lines was analyzed and the IC50 value for each cell line was determined, as shown in Table 1. […] Similar to melanoma results, INT2-31 inhibits viability more in cancer cells compared to normal cells. Sensitivity of the cells to INT2-31 varied and directly correlated to the FAK and IGF-1R expression level of the cells.

[2] = tested on: KYSE70 esophageal cancer cells; experiment: Cell viability (MTT), KYSE70; format: cell-based; settings: KYSE 70, 72 hours
Protocol: as §1, §2, §3

FAK-NT2 and IGF-1R = target: T1, FAK-NT2 and IGF-1R (Homo sapiens, UniProt Q05397); experiment: Immunofluorescent staining and confocal microscopy, colocalization; format: cell-based; settings: cells transfected in the presence of the compound
T1 construct: FAK-NT2 (a.a. 127-243); expressed in transfected cells
Protocol: Cells were fixed in 3.7% paraformaldehyde in 1×PBS for 10 min and permeabilized with 0.5% Triton X-100 for 5 minutes. Cells were then washed with 1×PBS, blocked with 25% normal goat serum in 1×PBS for 20 min and incubated with primary antibody (1:200 dilution in 25% goat serum) for 30 min at room temperature. After washing three times with 1×PBS, cells were incubated with a Texas Red-conjugated secondary antibody (1:400 dilution in 25% goat serum) for 30 min at room temperature and washed another three times with 1×PBS before observed under the microscope. For coimmunostaining experiments, cells were incubated with another primary antibody diluted 1:100 in 25% goat serum for 1 h. After washing three times with 1×PBS, a fluorescein isothiocyanate-conjugated secondary antibody (1:100 dilution) was applied to the coverslip. Cells immunostained with FAK and IGF-IR antibodies were evaluated for colocalization with a Leica confocal microscope and the MRC-1024 confocal laser scanning system. Cells treated with FAK-CD or FAK siRNA with or without test compound were stained with FAK antibody and evaluated for displacement of FAK from the focal adhesions with a Zeiss microscope. […] Colocalization is low for FAK-NT1, FAK-NT3 and FAK-CD.

C8161 melanoma cells [3] = experiment: Cell viability (MTT), C8161; format: cell-based, human; settings: C8161, MTT
Protocol: as §1, §2, §3
To determine the effect on melanoma cell viability, three human melanoma cell lines were exposed to increasing doses of INT2-31 for 72 h and the results compared to human melanocytes. […] The effects of INT2-31 varied in the three cell lines and was possibly related to constitutive FAK and IGF-1R activation with the least sensitive cell line (SK-MEL-28) having the greatest expression of FAK and IGF-1R.

A375 melanoma cells = experiment: Cell viability (MTT), A375; format: cell-based, human; settings: A375, MTT
Protocol: as §1, §2
In addition, the effect of INT2-31 on cell viability of esophageal, pancreatic and breast cancer cell lines was analyzed and the IC50 value for each cell line was determined, as shown in Table 1. […] Similar to melanoma results, INT2-31 inhibits viability more in cancer cells compared to normal cells. […]

IGF-1R+/+ and −/− MEFs = experiment: MTT assay on IGF-1R wildtype and null fibroblasts; format: cell-based, mouse; settings: MTT, p<0.05
Protocol: as §1
(§4) Cell proliferation assay: Cell proliferation assay (Promega) using CellTiter 96 aqueous one solution was performed by adding a small amount of the One Solution Reagent directly to culture wells, incubating for 1-4 hours and then recording absorbance at 490 nm with a spectrophotometric plate reader. The quantity of formazan product as measured by the amount of 490 nm absorbance was directly proportional to the number of living cells in culture.
as §2

[4] = tested on: FAK +/+ and FAK −/− mouse embryonic fibroblast; experiment: MTT assay on FAK wildtype and null fibroblasts; format: cell-based; settings: MTT, p<0.05
Protocol: as §1, §4, §2

C8161 melanoma cells [5] = experiment: Detachment assay, C8161 cells; format: cell-based, human; settings: INT2-31 5 μM at 72 h; TAE 226 at 48 h and 72 h
Protocol: In detachment assays, detached and attached cells were harvested separately and counted in a hemocytometer. The percentage of detachment was calculated by dividing the number of detached cells by the total number of cells.
Detachment assay: Cells were plated with and without compound for 24, 48, and 72 h, and detached and attached cells were counted in a hemocytometer. The percent of detachment was calculated by dividing the number of detached cells by the total number of cells and experiments performed in triplicate. Apoptosis assays: After treatment, attached and detached cells were collected, counted and prepared for terminal uridine deoxynucleotidyl transferase (TUNEL) assay by utilizing an APO-BRDU kit (BD Pharmingen, San Diego, Calif.) and cells analyzed with a FACSCalibur cytometer (Becton Dickinson, San Jose, Calif.). In addition, apoptotic cells were analyzed with Hoechst 33342 staining (1 μg/ml). The percent of apoptotic cells was calculated as the ratio of apoptotic cells to total number of cells.

T1 sequence (Q05397 127-243): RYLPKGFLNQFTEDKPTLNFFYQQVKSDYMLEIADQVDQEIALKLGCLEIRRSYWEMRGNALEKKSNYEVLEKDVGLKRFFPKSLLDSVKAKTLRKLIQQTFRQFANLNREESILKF

## O=c1[nH]cc(F)c(=O)[nH]1 [5-FU, 5-Fluorouracil, reference compound]
[1]
  sensitivity of cells to single-agent treatment: sensitive
[2]
  sensitivity of cells to single-agent treatment: sensitive

## CC(=O)C1=C(O)C2(C)c3c(O)c(C)c(O)c(C(C)=O)c3OC2(Sc2ccccc2)CC1=O (centres unmarked) [NSC 250435, 1,1′-(1,7,9-Trihydroxy-8,9b-dimethyl-3-oxo-4-a-(phenylthio)-3,4,4a,9b-tetrahydrodibenzo-[b,d]furan-2,6-diyl)diethanone]
FAK-NT2 and IGF-1R
  percentage of interaction between FAK-NT2 and IGF-1R: around 30%
C8161 melanoma cells [3]
  cell viability (in words): inhibited cell viability
A375 melanoma cells
  cell viability (in words): inhibited cell viability

## Nc1ncnc2c1c(-c1cccc(OCc3ccccc3)c1)cn2C1CC(CN2CCC2)C1 (centres unmarked) [NVP AEW541, reference compound]
IGF-1R+/+ and −/− MEFs
  effect on IGF-1R wildtype compared to null fibroblasts: increased effect
[4]
  effect on FAK wildtype compared to null fibroblasts: increased effect

## CNC(=O)c1ccccc1Nc1nc(Nc2ccc(N3CCOCC3)cc2OC)ncc1Cl [TAE 226, reference compound]
C8161 melanoma cells [5]
  effect on detachment (in words): Greater effects
